According to ChEMBL document CHEMBL1154464, “Constrained analogues of tocainide as potent skeletal muscle sodium channel blockers towards the development of antimyotonic agents” (Eur J Med Chem, 2008):

What was measured:
[1] = Blockade of Nav1.4 sodium channel in frog semitendinosus muscle fibres assessed as phasic block at 10 Hz stimulation frequency by vaseline-gap voltage clamp method; assay type: tissue-based, Pelophylax lessonae
[2] = Blockade of Nav1.4 sodium channel in frog semitendinosus muscle fibres assessed as tonic block elicited by infrequent depolarizing pulses at a frequency of 0.3 Hz by vaseline-gap voltage clamp method; assay type: tissue-based, Pelophylax lessonae
Pelophylax lessonae = test: Ratio of IC50 for tonic blockade of Nav1.4 sodium channel to phasic blockade of Nav1.4 sodium channel in frog semitendinosus muscle fibres; assay type: tissue-based

Question: What does the source list for `Cc1cccc(C)c1NC(=O)C1CN(Cc2ccccc2)CCN1` (configuration not stated)?
Answer: IC50 [1]: 2.4 µM; IC50 [2]: 31.6 µM; Ratio IC50 (Pelophylax lessonae): 13

Question: With `Cc1cccc(C)c1NC(=O)C1CCCN(Cc2ccccc2)C1` (configuration not stated) as the molecule, how does the IC50 [1] read?
Answer: The IC50 was 4.5 µM.

Question: What about the IC50 [2] of the same molecule?
Answer: The IC50 was 38.5 µM.

Question: Which results are given for `Cc1cccc(C)c1NC(=O)C(C)N` (configuration not stated) [TOCAINIDE]?
Answer: IC50 [1]: 273 µM; IC50 [2]: 581 µM
